Assay results reported in US11141410B2 (MERCK SHARP & DOHME CORP., priority 2015, dated 2021).

Key:
MRSA COL (MB5393) [1] = assay: TarO Inhibitor/β-Lactam Synergy Assay (growth, OD600); type: cell-based, Staphylococcus aureus; settings: for MITC95 TarO inhibitor + 4 μg/mL IPM; Bacteria: SA_MB5393: in combination with 4 μg/mL imipenem (IPM); for MITC95 TarO inhibitor + 8 μg/mL DCX; Bacteria: SA_MB5393: in combination with 8 μg/mL dicloxacillin (DCX)
In short: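 TarO inhibitors titrated 2-fold from 200 μM (2% DMSO) against MRSA COL, 5×10^5 CFU in CAMHB, with β-lactam fixed at clinical breakpoint (imipenem 4 μg/ml or dicloxacillin 8 μg/ml). Incubated 20 h at 37 °C without shaking; relative growth read as OD600.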

MRSA COL (MB5393) [2] = assay: as above; type: cell-based; settings: Staphylococcus aureus, TarO inhibitor alone, >200 μM = 95% growth inhibition not achieved, 20 hours at 37° C., read-out: MITC95 TarO inhibitor alone, Bacteria: SA_MB5393

Row | Structure (SMILES) | MITC95 TarO inhibitor + 4 μg/mL IPM; Bacteria: SA_MB5393 (MRSA COL (MB5393) [1]) [µM] | MITC95 TarO inhibitor + 8 μg/mL DCX; Bacteria: SA_MB5393 (MRSA COL (MB5393) [1]) [µM] | IC95 (MRSA COL (MB5393) [2]) [µM]
1 | C[C@H]1[C@@H](c2cc(C(F)(F)F)cc(C(F)(F)F)c2)OC(=O)N1C(=O)NCc1cncc2cccnc12 [Example 4, (4S,5R)-5-[3,5-bis(trifluoromethyl)phenyl]-4-methyl-N-(1,6-naphthyridin-8-ylmethyl)-2-oxo-1,3-oxazolidine-3-carboxamide] | 0.13 | 0.39 | > 200
2 | C[C@H]1[C@@H](c2cc(F)cc(C(F)(F)F)c2)OC(=O)N1C(=O)NCc1ccccc1S(C)(=O)=O [Example 44, (4S,5R)-5-[3-fluoro-5-(trifluoromethyl)phenyl]-4-methyl-N-[2-(methylsulfonyl)benzyl]-2-oxo-1,3-oxazolidine-3-carboxamide] | 12.50 | 25 | > 200
3 | COc1cc(C(F)(F)F)cc([C@H]2OC(=O)N(C(=O)NCc3cncc4cccnc34)[C@H]2C)n1 [Example 60, (4S,5S)—N-((1,6-naphthyridin-8-yl)methyl)-5-(6-methoxy-4-(trifluoromethyl)pyridin-2-yl)-4-methyl-2-oxooxazolidine-3-carboxamide] | 0.33 | 1.45 | > 200
4 | C[C@H]1[C@@H](c2cc(F)cc(C(F)(F)F)c2)OC(=O)N1C(=O)NCc1ccccc1[N+](=O)[O-] [Example 3, (4S,5R)-5-[3-fluoro-5-(trifluoromethyl)phenyl]-4-methyl-N-(2-nitrobenzyl)-2-oxo-1,3-oxazolidine-3-carboxamide] | 0.33 | 2.60 | > 200
5 | C[C@H]1[C@@H](c2cc(C(F)(F)F)cc(C(F)(F)F)c2)OC(=O)N1C(=O)NCC1CCCc2ccccc21 (stereo partly drawn) [Example 19, (4S,5R)-5-[3,5-bis(trifluoromethyl)phenyl]-4-methyl-2-oxo-N-(1,2,3,4-tetrahydronaphthalen-1-ylmethyl)-1,3-oxazolidine-3-carboxamide] | 0.15 | 1.45 | > 200
6 | O=C(CCc1cncc2ccccc12)N1C(=O)O[C@H](c2cc(C(F)(F)F)cc(C(F)(F)F)c2)C12CC2 [Example 101, (R)-7-(3,5-bis(trifluoromethyl)phenyl)-4-(3-(isoquinolin-4-yl)propanoyl)-6-oxa-4-azaspiro[2.4]heptan-5-one] | 0.20 | – | > 200
7 | COc1ccccc1CNC(=O)N1C(=O)O[C@H](c2cccc(C(F)(F)F)c2)[C@@H]1C [Example 24, (4S,5R)-N-(2-methoxybenzyl)-4-methyl-2-oxo-5-[3-(trifluoromethyl)phenyl]-1,3-oxazolidine-3-carboxamide] | 0.20 | 7.29 | > 200
8 | C[C@H]1[C@@H](c2cc(C(F)(F)F)cc(C(F)(F)F)c2)OC(=O)N1C(=O)Cc1cccc2ccccc12 [Example 71, (4S,5R)-5-[3,5-bis(trifluoromethyl)phenyl]-4-methyl-3-(naphthalen-1-ylacetyl)-1,3-oxazolidin-2-one] | 0.89 | – | > 200
9 | C[C@H]1[C@@H](c2cc(F)cc(C(F)(F)F)c2)OC(=O)N1C(=O)NCc1ccnc2ccccc12 [Example 23, (4S,5R)-5-[3-fluoro-5-(trifluoromethyl)phenyl]-4-methyl-2-oxo-N-(quinolin-4-ylmethyl)-1,3-oxazolidine-3-carboxamide] | 0.61 | 4.84 | > 200
10 | COc1cc([C@H]2OC(=O)N(C(=O)NCc3cncc4ccccc34)[C@H]2CO)cc(C(F)(F)F)c1 [Example 55, (4S,5R)-4-(hydroxymethyl)-N-(isoquinolin-4-ylmethyl)-5-[3-methoxy-5-(trifluoromethyl)phenyl]-2-oxo-1,3-oxazolidine-3-carboxamide] | 0.30 | 1.18 | > 200
11 | C[C@H]1[C@@H](c2cc(F)cc(C(F)(F)F)c2)OC(=O)N1C(=O)NCc1nccc2sccc12 [Example 14, (4S,5R)-5-[3-fluoro-5-(trifluoromethyl)phenyl]-4-methyl-2-oxo-N-(thieno[3,2-c]pyridin-4-ylmethyl)-1,3-oxazolidine-3-carboxamide] | 0.49 | 5.63 | > 200
12 | Cc1cnc(F)c(CNC(=O)N2C(=O)O[C@H](c3cc(C(F)(F)F)cc(C(F)(F)F)c3)[C@@H]2C)c1 [Example 35, (4S,5R)-5-[3,5-bis(trifluoromethyl)phenyl]-N-[(2-fluoro-5-methylpyridin-3-yl)methyl]-4-methyl-2-oxo-1,3-oxazolidine-3-carboxamide] | 0.10 | 0.98 | > 200
13 | C[C@H]1[C@@H](c2cc(Cl)cc(C(F)(F)F)c2)OC(=O)N1C(=O)CCc1cccc2ccccc12 [Example 66, (4S,5R)-5-[3-chloro-5-(trifluoromethyl)phenyl]-4-methyl-3-(3-naphthalen-1-ylpropanoyl)-1,3-oxazolidin-2-one] | 0.03 | 0.20 | > 200
14 | O=C(NCc1cncc2cccnc12)N1C(=O)O[C@H](c2cc(C(F)(F)F)cc(C(F)(F)F)c2)[C@@H]1CO [Example 53, (4S,5R)-5-[3,5-bis(trifluoromethyl)phenyl]-4-(hydroxymethyl)-N-(1,6-naph-thyridin-8-yl-methyl)-2-oxo-1,3-oxazolidine-3-carboxamide] | 0.39 | 1.37 | > 200
15 | C[C@H]1[C@@H](c2cc(F)cc(C(F)(F)F)c2)OC(=O)N1C(=O)NCc1cccc(N(C)C)c1 [Example 9, (4S,5R)-N-[3-(dimethylamino)benzyl]-5-[3-fluoro-5-(trifluoromethyl)phenyl]-4-methyl-2-oxo-1,3-oxazolidine-3-carboxamide] | 0.22 | 1.65 | > 200
16 | C[C@H]1[C@@H](c2cc(F)cc(C3CC3)c2)OC(=O)N1C(=O)NCc1cncc2ccccc12 [Example 26, (4S,5R)-5-(3-cyclopropyl-5-fluorophenyl)-N-(isoquinolin-4-ylmethyl)-4-methyl-2-oxo-1,3-oxazolidine-3-carboxamide] | 0.25 | 0.99 | > 200
17 | Cc1cccc(OCC(=O)N2C(=O)O[C@H](c3cccc(C(F)(F)F)c3)[C@@H]2C)c1C [Example 90, (4S,5R)-3-(2-(2,3-dimethylphenoxy)acetyl)-4-methyl-5-(3-(trifluoromethyl)-phenyl)oxazolidin-2-one] | 0.39 | 12.50 | > 200
